Columns and labels:
[1] = tested on: plasma ACTH; test: Plasma ACTH by radioimmunoassay in treated rats; assay type: in vivo, Sprague-Dawley rats; conditions: 2 mg/kg intraperitoneally once daily for eight days; for ACTH: plasma, control 28.0
Protocol: (§1) In each experiment, at least six rats per treatment group were used. After eight days of treatment, the rats were sacrificed.
(§2) The level of steroids in the rats was measured by radioimmunoassay from organic extracts of the collected serum. The levels of corticosterone (a glucocorticoid in rats) and testosterone were measured by radioimmunoassay using antibodies from Endocrine Sciences (Tarlana, Calif., USA) under conditions described by the supplier. The level of plasma ACTH was measured by radioimmunoassay using the method of Crousos, et al., New Engl. J. Med. 310:622 (1984). The level of aldosterone was measured by radioimmunoassay using a kit from Diagnostics Products Corp. (Los Angeles, Calif., USA).

[2] = tested on: testosterone; test: Serum testosterone by radioimmunoassay in treated rats; assay type: in vivo, Sprague-Dawley rats; conditions: 2 mg/kg intraperitoneally once daily for eight days; for TESTOSTERONE: serum, control 4.50
Protocol: as §1, §2

[3] = tested on: aldosterone; test: Serum aldosterone by radioimmunoassay in treated rats; assay type: in vivo, Sprague-Dawley rats; conditions: 2 mg/kg intraperitoneally once daily for eight days; for ALDOS-STERONE: serum, control 685
Protocol: as §1, §2

[4] = target: 18 Kd peripheral benzodiazepine receptor protein; test: Benzodiazepine radioligand binding assay ([3H]PK 11195) in adrenal mitochondria; design: species or system rat
Protocol: See, Garnier, et al., Endocrinology 132:444 (1993). Mitochondria were prepared as described in Krueger, et al., J. Biol. Chem. 265:15015 (1990). Mitochondria ([…] of protein) were resuspended in phosphate buffered saline (PBS) and [^3H]PK 11195 (New England Nuclear, Wilmington, Del., USA). Binding studies were performed at 4° C. in a final incubation volume of 0.3 ml, using radioligand in the concentration range of 0.019-20.00 nM and 200 fold excess of unlabeled PK 11195 (Research Biochemicals, Natick, Mass., USA), as described in Garnier, et al., Endocrinology 132:444 (1993) and Garnier, et al., Mol. Pharm. 45:201 (1994). After 120 min. incubation time, the assay was stopped by filtration through Whatman GF/C filters and washed with 15 ml ice-cold PBS. Radioactivity trapped on the filters were determined by liquid scintillation counting at 50% counting efficiency. The dissociation constant (Kd) and the number of binding sites (Bmax) were determined by […] analysis of the data using the ligand™ program (Kell, V.4.0, Biosoft, Inc.). See Munson, et al., Anal. Biochem. 107:220 (1980).

[5] = tested on: corticosterone (a glucocorticoid in rats); test: Assay for determining the inhibition of glucocorticoids: serum corticosterone by radioimmunoassay; assay type: in vivo, Sprague-Dawley rats; conditions: 2 mg/kg intraperitoneally once daily for eight days; for CORTICOSTERONE: serum, control 161
Protocol: as §1, §2

[6] = tested on: peripheral benzodiazepine receptor mRNA; test: mRNA expression of benzodiazepine receptor in adrenal tissue (RNA blot, PBR cDNA probe); design: species or system rat; conditions: adrenal tissue total RNA, densiometric analysis
Protocol: mRNA Expression of Benzodiazepine Receptor The ginkgolide induced decrease in mRNA expression of the benzodiazepine receptor was also confirmed. Total cellular RNA from adrenal tissue was isolated by the acid guanidinium thiocyanate-phenol-chloroform extraction method (Chomczynski, et al., Anal. Biochem. 162:156-159 (1987)) using the RNAzol B reagent (Tel-Test Inc., Friendswood, Texas, USA). RNA electrophoresis transfer, probe labelling, and membrane hybridization were performed as previously described in Dym, et al., Endocrinology 128:1167-1176 (1991). RNA was size-fractionated by electrophoresis and transferred to derivatized nylon membranes (Nytran Plus, Schleicher & Schuell, Keene, New Hampshire, USA). The blots were then hybridized against the [^32p] cDNA probe for PBR labelled by the random priming technique. The 781 base-pair probe for PBR mRNA used was prepared as previously described in Garnier, et al., Endocrinology 132:444-458 (1993). Screen enhanced autoradiography was performed by exposing Kodak X-OMAT AR films to the blots at −80° C for 48 hours. Densiometric analysis of the spots was performed as described above.

Kd ([4]; dissociation constant of radioligand [3H]PK 11195 in adrenal mitochondria after treatment with the substance, 4° C., 120 min, control 1.7) [nM]	decrease of expression of the 18 Kd peripheral benzodiazepine receptor protein ([4]; from Bmax versus control, adrenal mitochondria) [%]	Bmax ([4]; number of [3H]PK 11195 binding sites in adrenal mitochondria after treatment with the substance, control 11.2) [pmol/mg]	Compound	effect on ACTH release [1]	ACTH [1] [pg/mL]	effect on serum levels of testosterone [2]	TESTOSTERONE [2] [ng/mL]	effect on serum levels of aldosterone [3]	ALDOS-STERONE [3] [pg/mL]	effect on the level of corticosterone in the rats [5]	CORTICOSTERONE [5] [ng/mL]	reduction of peripheral benzodiazepine receptor mRNA expression [6] [%]
1.3	50	5.6	C[C@@H]1C(=O)O[C@H]2C[C@@]34[C@H]5C[C@@H](C(C)(C)C)[C@]36[C@@H](OC(=O)[C@@H]6O)O[C@@]4(C(=O)O5)[C@]21O [Ginkgolide A, ginkgolide A]	increase ACTH release	103	unaffected	4.75	unaffected	638	decrease	66	
			CC1C(=O)OC2C(O)C34C5CC(C(C)(C)C)C36C(OC(=O)C6O)OC4(C(=O)O5)C12O (centres unmarked) [Ginkgolide B, ginkgolide B]	increase ACTH release	71.4	unaffected	4.50	unaffected	893	decrease	75	85

From US20020006955A1, “Ginkgolides for inhibition of membrane expression of benzodiazepine receptors” (priority 1995, published 2002)
